In ChEMBL document CHEMBL1154617, “Synthesis and biological evaluation of 17beta-hydroxysteroid dehydrogenase type 1 (17beta-HSD1) inhibitors based on a thieno[2,3-d]pyrimidin-4(3H)-one core” (J Med Chem, 2009) one finds inhibition and EC50 data, which are given here for 29 molecules.

The target in test [1] is T1, 17-beta-hydroxysteroid dehydrogenase type 1 (Homo sapiens) (UniProt P14061).
T1 sequence (whole entry): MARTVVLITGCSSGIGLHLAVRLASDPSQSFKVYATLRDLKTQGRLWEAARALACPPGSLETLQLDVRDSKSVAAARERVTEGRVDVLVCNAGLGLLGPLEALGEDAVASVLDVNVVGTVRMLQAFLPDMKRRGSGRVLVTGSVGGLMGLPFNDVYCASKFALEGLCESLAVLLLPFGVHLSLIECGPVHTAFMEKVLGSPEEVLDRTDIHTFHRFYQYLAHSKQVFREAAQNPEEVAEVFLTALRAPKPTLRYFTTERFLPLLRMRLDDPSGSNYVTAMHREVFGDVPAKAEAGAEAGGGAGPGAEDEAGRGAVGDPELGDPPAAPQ
Briefly: Inhibition of human recombinant 17beta-HSD1 at 1 uM by cell-free assay. The class given is single protein.

Test [2] addresses T2, 17-beta-hydroxysteroid dehydrogenase type 2 (Homo sapiens) (UniProt P37059).
T2 sequence (whole entry): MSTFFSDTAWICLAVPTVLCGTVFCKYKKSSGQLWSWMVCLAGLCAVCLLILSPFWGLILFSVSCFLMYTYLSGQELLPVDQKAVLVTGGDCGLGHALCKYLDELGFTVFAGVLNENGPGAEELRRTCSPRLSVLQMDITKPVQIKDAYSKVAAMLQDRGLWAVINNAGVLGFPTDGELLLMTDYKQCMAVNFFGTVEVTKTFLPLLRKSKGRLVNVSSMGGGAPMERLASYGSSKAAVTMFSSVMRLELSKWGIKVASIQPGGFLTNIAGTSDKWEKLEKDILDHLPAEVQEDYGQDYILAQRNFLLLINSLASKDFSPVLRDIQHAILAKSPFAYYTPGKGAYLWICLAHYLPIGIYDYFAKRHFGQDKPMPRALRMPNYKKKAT
The test can be described thus: Inhibition of human recombinant 17beta-HSD2 at 1 uM by cell-free assay.

Test [3] deals with T2, 17-beta-hydroxysteroid dehydrogenase type 2 (Homo sapiens). Briefly: Inhibition of human recombinant 17beta-HSD2 at 0.1 uM by cell-free assay.
The target of test [4] is T1, 17-beta-hydroxysteroid dehydrogenase type 1 (Homo sapiens). Briefly: Inhibition of human recombinant 17beta-HSD1 at 0.1 uM by cell-free assay. The class given is single protein.
The target is the same in test [5]. The test can be described thus: Inhibition of human recombinant 17beta-HSD1 expressed in human MCF7 cells at 1 uM by cell-based assay.
For test [6] the target is unchanged. Briefly: Inhibition of human recombinant 17beta-HSD1 expressed in human MCF7 cells at 0.1 uM by cell-based assay.
For another test, the target named is T3, Estrogen receptor (Homo sapiens, UniProt P03372).
T3 sequence (P03372 whole entry): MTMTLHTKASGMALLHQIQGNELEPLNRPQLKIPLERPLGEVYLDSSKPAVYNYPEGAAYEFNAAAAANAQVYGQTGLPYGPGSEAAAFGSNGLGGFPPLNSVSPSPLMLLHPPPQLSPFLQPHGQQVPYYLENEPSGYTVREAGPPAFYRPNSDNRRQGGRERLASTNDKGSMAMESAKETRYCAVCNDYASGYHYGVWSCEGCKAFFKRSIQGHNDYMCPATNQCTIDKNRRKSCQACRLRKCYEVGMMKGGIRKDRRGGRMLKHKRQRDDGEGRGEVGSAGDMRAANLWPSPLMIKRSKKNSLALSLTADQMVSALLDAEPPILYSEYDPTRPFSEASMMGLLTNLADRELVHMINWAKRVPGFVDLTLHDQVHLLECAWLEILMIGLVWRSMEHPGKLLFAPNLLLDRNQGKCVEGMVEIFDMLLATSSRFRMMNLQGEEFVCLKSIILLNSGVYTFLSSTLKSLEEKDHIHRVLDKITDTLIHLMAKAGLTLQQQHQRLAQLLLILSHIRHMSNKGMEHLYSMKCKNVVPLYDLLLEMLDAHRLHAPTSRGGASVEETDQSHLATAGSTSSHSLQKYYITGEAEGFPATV
Briefly: Activity at human recombinant ERalpha by fluorescence polarization assay. For orientation: In fluorescence polarisation assays a small probe gives low polarisation when free and higher when bound to something large.

A further test concerns the target Estrogen receptor beta (Homo sapiens, UniProt Q92731). Briefly: Activity at human recombinant ERbeta by fluorescence polarization assay.

Activity calls are given as the source filed them. The calls are words filed in the database; no cut-off is given here.

Estrogen receptor beta, sequence (Q92731 whole entry): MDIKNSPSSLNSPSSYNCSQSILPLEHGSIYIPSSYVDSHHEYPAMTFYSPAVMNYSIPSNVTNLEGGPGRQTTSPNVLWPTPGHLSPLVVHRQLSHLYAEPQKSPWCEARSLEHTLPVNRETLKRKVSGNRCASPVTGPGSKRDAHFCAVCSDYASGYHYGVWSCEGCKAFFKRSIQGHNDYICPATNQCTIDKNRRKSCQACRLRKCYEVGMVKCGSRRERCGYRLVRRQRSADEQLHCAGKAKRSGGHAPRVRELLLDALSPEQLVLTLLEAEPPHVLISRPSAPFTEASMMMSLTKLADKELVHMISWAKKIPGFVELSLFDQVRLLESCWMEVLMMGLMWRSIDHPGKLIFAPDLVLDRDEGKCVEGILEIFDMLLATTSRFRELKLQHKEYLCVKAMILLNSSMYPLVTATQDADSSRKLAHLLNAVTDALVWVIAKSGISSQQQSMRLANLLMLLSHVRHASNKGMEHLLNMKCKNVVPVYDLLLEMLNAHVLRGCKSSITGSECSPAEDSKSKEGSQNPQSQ

Turning to `O=CC1=C(Sc2ccncc2)c2sc3nc4n(c(=O)c3c2CC1)CCCCC4`, the inhibition (in general, the percentage by which the read-out fell short of the control) was determined as 87.2% in test [1], 13.7% in test [2], 10.5% in test [3] and 79.2% in test [4].
On to `O=CC1=C(Sc2ccc(O)cc2)c2sc3nc4n(c(=O)c3c2CC1)CCCCC4`, for which the inhibition was 1.8% in test [1]; 22.6% in test [2]; 21.7% in test [3]; 58.5% in test [4]; 76.8% in test [5]; 36.5% in test [6].
Turning to `O=CC1=C(Cl)c2sc3nc4n(c(=O)c3c2CC1)CCC4`, the inhibition in test [1] is 26.1%; in test [4], 3.3%; in test [5], 38.6%; in test [6], 19.7%.
Turning to `CCCSc1c(C=O)ccc2c1sc1nc3n(c(=O)c12)CCCCC3`, the inhibition in test [1] was 90.6%; in test [2], 12.7%; in test [3], 3.8%; in test [4] it was 83%; in test [5] it was 86.4%; in test [6] it was 28.5%.
With `CCCSC1=C(C=O)CCc2c1sc1ncn(C)c(=O)c21`, the inhibition in test [1] was determined as 55.8%; in test [2], 17.4%; in test [3], 12.9%; in test [4], 24.3%; in test [5] it was 48.2%; in test [6], 19.5%.
Take `O=CC1=C(Sc2ccccc2)c2sc3nc4n(c(=O)c3c2CC1)CCCCC4`: the inhibition in test [1] was 85.1%; in test [4] it was 63.3%. For the same molecule, the EC50 on Estrogen receptor and on Estrogen receptor beta was more than 10 µM each time.
Consider `CC(C)SC1=C(C=O)CCc2c1sc1nc3n(c(=O)c21)CCCCC3`, for which the inhibition in test [1] stood at 92.9%; in test [4], 64.7%; in test [5], 100%; in test [6], 71.9%. The inhibition entry in test [2] and in test [3] was “inactive” each time.
Turning to `O=C1CCCc2c1sc1nc3n(c(=O)c21)CCCC3`, the figures for the inhibition in test [1], in test [5] and in test [6] were 3.8%, 35.8% and 6.3%, respectively. Moreover, the inhibition result in test [4] is “inactive”.
As for `O=CC1=C(Sc2ccc3ccccc3c2)c2sc3nc4n(c(=O)c3c2CC1)CCCCC4`, the inhibition in test [1] is 64%; in test [2], 40.1%; in test [3], 19%; in test [4] it was 55.2%.
For `CCCSC1=C(C=O)CCCc2c1sc1nc3n(c(=O)c21)CCCCC3`, the inhibition worked out at 87% in test [1], 35.2% in test [4], 100% in test [5] and 43.9% in test [6]. For the same molecule, the inhibition entry in test [2] and in test [3] was “inactive” each time.
Regarding `CCCCSC1=C(C=O)CCc2c1sc1nc3n(c(=O)c21)CCCCC3`, the inhibition in test [1] amounted to 93.4%; in test [2], 7.8%; in test [4], 67.6%; in test [5], 100%; in test [6], 54.1%. Further, the inhibition result in test [3] was “inactive”.
`O=CC1=C(Sc2ccc(F)cc2)c2sc3nc4n(c(=O)c3c2CC1)CCCCC4`: the inhibition turned out to be 91.9% in test [1]; 27.4% in test [2]; 17% in test [3]; 87.4% in test [4]; 27.4% in test [5]; 17.3% in test [6].
As for `O=CC1=C(Sc2ccc(C(=O)O)cc2)c2sc3nc4n(c(=O)c3c2CC1)CCCCC4`, the inhibition in test [1] came out at 22.1%; in test [4], 3.8%.
Take `CCCSC1=C(/C=N/O)CCc2c1sc1nc3n(c(=O)c21)CCCCC3`: the inhibition in test [1] is 2.9%; in test [2], 41.1%; in test [3] it was 19.7%; in test [4] it was 0.1%.
As for `CCCSc1c(CO)ccc2c1sc1nc3n(c(=O)c12)CCCCC3`, the inhibition in test [1] came to 85.9%; in test [2], 20.6%; in test [3], 13.6%; in test [4], 69%; in test [5] it was 78.6%; in test [6] it was 35.6%.
Take `O=c1c2c3c(sc2nc2n1CCCCC2)C(Cl)=C(/C=N/O)CC3`: the inhibition stood at 17.9% in test [1], 4.1% in test [4], 15.1% in test [5] and 14% in test [6].
As for `CCSC1=C(C=O)CCc2c1sc1nc3n(c(=O)c21)CCCCC3`, the inhibition in test [1] came out at 94.5%; in test [2] it was 2%; in test [4], 71.3%; in test [5], 100%; in test [6], 66.1%. Besides, the inhibition entry in test [3] was “inactive”.
Regarding `O=c1c2c3c(sc2nc2n1CCCCC2)C(Cl)=C(CO)CC3`, the inhibition in test [1] was found to be 39.9%; in test [4] it was 14.5%; in test [5] it was 36.2%; in test [6], 25.9%.
Take `CCCSC1=C(C=O)CCc2c1sc1nc3n(c(=O)c21)CCC3`: the values for the inhibition in test [1] and in test [4] were 67.2% and 16.7%, respectively.
For `O=CC1=C(Cl)c2sc3nc4n(c(=O)c3c2CCC1)CCCCC4`, at Estrogen receptor, the EC50 (commonly the midpoint of the concentration-response curve) is more than 10 µM.
Regarding `O=CC1=C(Sc2ccccc2O)c2sc3nc4n(c(=O)c3c2CC1)CCCCC4`, the inhibition in test [1] worked out at 91.3%; in test [2] it was 71.6%; in test [3] it was 32.6%; in test [4] it was 85.6%; in test [5], 90.1%; in test [6], 18.2%.
Turning to `CCCSC1=C(/C=C/C(C)=O)CCc2c1sc1nc3n(c(=O)c21)CCCCC3`, the inhibition worked out at 13.9% in test [1], 1.1% in test [4], 8.9% in test [5] and 8.4% in test [6].
On to `O=CC1=C(SCCC(=O)O)c2sc3nc4n(c(=O)c3c2CC1)CCCCC4`, for which the inhibition in test [1] amounted to 2.8%; in test [4] it was 0.3%.
Consider `COc1ccc(SC2=C(C=O)CCc3c2sc2nc4n(c(=O)c32)CCCCC4)cc1`, for which the inhibition came out at 89.8% in test [1]; 53% in test [2]; 8.6% in test [3]; 89% in test [4]; 71.6% in test [5]; 24.6% in test [6].
As for `O=c1c2c3c(sc2nc2n1CCCCC2)CCCC3`, the inhibition in test [1] stood at 23.2%; in test [4] it was 8%; in test [5], 45.9%; in test [6] it was 10%.
With `O=c1c2c(nc3n1CCCCC3)sc1c(Sc3ccccc3)c(CO)ccc12`, the inhibition in test [1] was found to be 87.5%; in test [2] it was 37.3%; in test [3], 30.8%; in test [4], 80.5%; in test [5], 46.9%; in test [6], 30.5%.
With `O=CC1=C(SCC(=O)N2CCOCC2)c2sc3nc4n(c(=O)c3c2CC1)CCCCC4`, the inhibition in test [1] stood at 7.8%; in test [2], 3.1%; in test [3] it was 3.9%; in test [4], 4%; in test [5], 39.4%; in test [6], 3.9%.
Take `O=CC1=C(SCc2ccccc2)c2sc3nc4n(c(=O)c3c2CC1)CCCCC4`: the inhibition in test [1] was 30.7%; in test [2], 62.2%; in test [3], 25.8%; in test [4], 7.2%.
Regarding `Cc1ccc(SC2=C(C=O)CCc3c2sc2nc4n(c(=O)c32)CCCCC4)cc1`, the inhibition worked out at 80.6% in test [1]; 32.1% in test [2]; 8.2% in test [3]; 47% in test [4]; 69.4% in test [5]; 18.9% in test [6].
